Patent publication US9840500B2, “Compounds as dual inhibitors of histone methyltransferases and DNA methyltransferases” (FUNDACIÓN PARA LA INVESTIGACIÓN MÉDICA APLICADA, priority 2014, dated 2017)

Experiments:
SK-MEL-147 = assay: Cell proliferation assay, SK-MEL-147 (Melanoma); type: cell-based; conditions: Homo sapiens, 48 hours
Method: (§1) Cell proliferation was analyzed after 48 hours of in vitro treatment using the CellTiter 96 Aqueous One Solution Cell Proliferation Assay (Promega, Madison, Wis.). This is a colorimetric method for determining the number of viable cells in proliferation.
(§2) For the assay, suspension cells were cultured by triplicate at a density of 1×10^6 cells/ml in 96-well plates (100.000 cells/well, 100 μl/well), except for OCILY-3 and OCILY-10 cell lines which were cultured at a density of 0.5×10^6 cells/ml (50.000 cells/well, 100 μl/well) and for HepG2, Hep3B and PLC/PRF/5 cell ines which were cultured at a density of 3000 cells/well, 100 μl/well). Adherent cells were obtained from 80-90% confluent flasks and 100 μl of cells were seeded at a density of 5000 cells/well in 96-well plates by triplicate. Before addition of the compounds, adherent cells were allowed to attach to the bottom of the wells for 12 hours. […]
(§3) After 48 hours of treatment, plates with suspension cells were centrifuged at 800 g for 10 minutes and medium was removed. […] After 1-3 hours of incubation at 37° C., absorbance was measured at 490 nm in a 96-well plate reader. The background absorbance was measured in wells with only cell line medium and solution reagent. Data was calculated as a percentage of total absorbance of treated cell/absorbance of non treated cells. […]

Sk-Hep1 = assay: Cell proliferation assay, Sk-Hep1 (Hepatocarcinoma); type: cell-based; conditions: Homo sapiens, 48 hours
Method: as §1, §2, §3

DNMT3B/3L = DNMT3B/3L (Homo sapiens, UniProt Q9UBC3); assay: DNMT3B enzyme activity assay (chemiluminescence BPS DNMT Universal Assay Kit); type: biochemical
Method: DNMT3A and DNMT3B activity assays were carried out with the chemiluminiscence BPS DNMT Universal Assay Kit (BPS#52035) using a strip 96-well plate pre-coated with DNMT substrate.
The enzyme activity assay protocol is as follows: • Rehydrate the microwells by adding 150 μL of TBST buffer (1× Tris-buffered saline (TBS), pH 8.0, containing 0.05% Tween-20) to every well. Incubate 15 minutes at room temperature. • Dilute each purified DNMT [DNMT3A/3L (BPS#51106) or DNMT3B/3L (BPS#51109)] in 1×DNMT assay buffer 2 (BPS#52201) at 5-10 ng/μL. Keep diluted enzyme on ice until use. • Prepare 50 μL of reaction mixture consisting of 20 μL of DNMT (5-10 ng/μL), 12.5 μL of 4×DNMT assay buffer 2 (BPS#52201), 2.5 μL of S-adenosylmethionine 400 μM, test compound at concentrations ranging from 3 nM to 10 μM and H2O up to 50 μL. • Add the entire reaction mixture to the substrate coated wells. […]
Incubate for 30 min at room temperature with slow shaking. • Wash plate three times with TBST buffer and incubate in Blocking buffer shaking on a rotating platform for 10 min. […] Immediately read luminescence using a BioTek Synergy™2 microplate reader.
The chemiluminescence intensity data were analyzed and compared. […] Calculated IC50 values were determined using non-linear regression analysis of Sigmoidal dose-response curve generated with a four-parameters inhibition curve.

HELA = assay: Cell proliferation assay, HELA (Cervical); type: cell-based; conditions: Homo sapiens, 48 hours
Method: as §1, §2, §3

MCF-7 = assay: Cell proliferation assay, MCF-7 (Breast); type: cell-based; conditions: Homo sapiens, MCF7, 48 hours
Method: as §1, §2, §3

MGH-U3 = assay: Cell proliferation assay, MGH-U3 (Bladder); type: cell-based; conditions: 48 hours
Method: as §1, §2, §3

LAL-CUN-2 = assay: Cell proliferation assay, LAL-CUN-2 (ALL); type: cell-based
Method: as §1
For the assay, suspension cells were cultured by triplicate at a density of 1×10^6 cells/ml in 96-well plates (100.000 cells/well, 100 μl/well), except for OCILY-3 and OCILY-10 cell lines which were cultured at a density of 0.5×10^6 cells/ml (50.000 cells/well, 100 μl/well) and for HepG2, Hep3B and PLC/PRF/5 cell ines which were cultured at a density of 3000 cells/well, 100 μl/well). Adherent cells were obtained from 80-90% confluent flasks and 100 μl of cells were seeded at a density of 5000 cells/well in 96-well plates by triplicate. Before addition of the compounds, adherent cells were allowed to attach to the bottom of the wells for 12 hours. In all cases, only the 60 inner wells were used to avoid any border effects.
After 48 hours of treatment, plates with suspension cells were centrifuged at 800 g for 10 minutes and medium was removed. The plates with adherent cells were flicked to remove medium. Then, cells were incubated with 100 ul/well of medium and 20 ul/well of CellTiter 96 Aqueous One Solution reagent. After 1-3 hours of incubation at 37° C., absorbance was measured at 490 nm in a 96-well plate reader. The background absorbance was measured in wells with only cell line medium and solution reagent. Data was calculated as a percentage of total absorbance of treated cell/absorbance of non treated cells.

1205-LU = assay: Cell proliferation assay, 1205-LU (Melanoma); type: cell-based; conditions: Homo sapiens, 48 hours
Method: as §1, §2, §3

DU145 = assay: Cell proliferation assay, DU145 (Prostate); type: cell-based; conditions: Homo sapiens, DU-145, 48 hours
Method: as §1, §2, §3

PLC/PRF/5 = assay: Cell proliferation assay, PLC/PRF/5 (HCC); type: cell-based; conditions: Homo sapiens, 48 hours of treatment, Table 3
WM-35 = assay: Cell proliferation assay, WM-35 (Melanoma); type: cell-based; conditions: WM35, 48 hours
Method: as §1, §2, §3

SU8686 = assay: Cell proliferation assay, SU8686 (Pancreas); type: cell-based; conditions: Homo sapiens, SU.86.86, 48 hours
Method: as §1, §2, §3

SK-MEL-103 = assay: Cell proliferation assay, SK-MEL-103 (Melanoma); type: cell-based; conditions: Homo sapiens, 48 hours
Method: as §1, §2, §3

MOLM-13 = assay: Cell proliferation assay, MOLM-13 (AML); type: cell-based; conditions: Homo sapiens, 48 hours
Method: as §1, §2, §3

A375 = assay: Cell proliferation assay, A375 (Melanoma); type: cell-based; conditions: Homo sapiens, A-375, 48 hours
Method: as §1, §2, §3

H460 = assay: Cell proliferation assay, H460 (non-small-cell lung cancer); type: cell-based; conditions: Homo sapiens, NCI-H460, 48 hours
Method: as §1, §2, §3

HBL-2 = assay: Cell proliferation assay, HBL-2 (MCL); type: cell-based; conditions: HBL2, 48 hours
Method: as §1, §2, §3

CEMO-1 = assay: Cell proliferation assay, CEMO-1 (ALL); type: cell-based, human; conditions: Homo sapiens
OCI-Ly1 = assay: Cell proliferation assay, OCI-Ly1 (GC-DLBCL); type: cell-based; conditions: Homo sapiens, 48 hours
Method: as §1, §2, §3

OCI-Ly7 = assay: Cell proliferation assay, OCI-Ly7 (GC-DLBCL); type: cell-based; conditions: Homo sapiens, 48 hours
Method: as §1, §2, §3

PEER = assay: Cell proliferation assay, PEER (ALL); type: cell-based; conditions: 48 hours
Method: as §1, §2, §3

KMS28BM = assay: Cell proliferation assay, KMS28BM (MM); type: cell-based; conditions: KMS-28BM, 48 hours
Method: as §1, §2, §3

Row | SMILES | GI50 (SK-MEL-147) [nM] | GI50 (Sk-Hep1) [nM] | IC50 (DNMT3B/3L) [nM] | GI50 (HELA) [nM] | GI50 (MCF-7) [nM] | GI50 (MGH-U3) [nM] | GI50 (LAL-CUN-2; 48 hours of treatment, Table 3) [nM] | GI50 (LAL-CUN-2; ALL, Table 5 comparison) [nM] | GI50 (1205-LU) [nM] | GI50 (DU145) [nM] | GI50 (PLC/PRF/5) [nM] | GI50 (WM-35) [nM] | GI50 (SU8686) [nM] | GI50 (SK-MEL-103) [nM] | GI50 (MOLM-13) [nM] | GI50 (A375) [nM] | GI50 (H460) [nM] | also measured
1 | COc1cc2c(NCC3CCN(C)CC3)cc(-c3ccc(C)o3)nc2cc1OCCCN1CCCC1 [Compound 3-07] | ≤ 100 | 100 to 1000 | 500 to 1000 | 100 to 1000 | 1000 to 10000 | 100 to 1000 | 100 to 1000 | 100 to 1000 | ≤ 100 | 100 to 1000 | 100 to 1000 | 100 to 1000 | 100 to 1000 | ≤ 100 | 1000 to 10000 | ≤ 100 | 100 to 1000 | 
2 | COc1cc2c(NC3CCN(C)CC3)cc(-c3ccc(C)o3)nc2cc1OCCCN1CCCC1.O=C(O)C(F)(F)F [Compound 3-04, 6-methoxy-2-(5-methyl-2-furyl)-N-(1-methyl-4-piperidyl)-7-(3-pyrrolidin-1-ylpropoxy)quinolin-4-amine; 2,2,2-trifluoroacetic acid] | 100 to 1000 | 100 to 1000 | 100 to 500 | 100 to 1000 | 100 to 1000 | 100 to 1000 | 100 to 1000 | 100 to 1000 | 100 to 1000 | 100 to 1000 | 100 to 1000 | 100 to 1000 | 1000 to 10000 | 100 to 1000 | 100 to 1000 | 100 to 1000 | 100 to 1000 | GI50 (HBL-2): 100 to 1000 nM; GI50 (CEMO-1; 48 hours of treatment, Table 3): 100 to 1000 nM; GI50 (CEMO-1; ALL, Table 5 comparison): 100 to 1000 nM; GI50 (OCI-Ly1): 100 to 1000 nM; GI50 (OCI-Ly7): 100 to 1000 nM; GI50 (PEER): 100 to 1000 nM; GI50 (KMS28BM): 1000 to 10000 nM
